Experiments:
[1] = system: HCT116 colon cancer cells; experiment: Staurosporine acute toxicity on HCT116 cells in connected wells of the microfluidic device (live/dead staining); type: cell-based; conditions: for cell death (live/dead staining): 24 hours
Experimental: 20,000 HCT116 cells were plated directly on the Transwell® membrane (catalog number 3386 for Transwell® plate) in McCoy's 5A media such that the connected wells preceding them were either filled with McCoy's 5A media (50 μls) alone or filled with 25 μls of 2.5 mg/ml collagen gel, with McCoy's 5A media (50 μls) above it. The arrangement is depicted in FIG. 11A, showing three pairs of connected wells (test units), where the lower well in each connected pair (test unit) has medium only, while the upper well in each test unit has HCT116 cells inside the well.
The high-throughput microfluidic device of FIG. 5B was cleaned, assembled and sterilized via autoclaving for 60 minutes. The wells of the autoclave sterilized high-throughput microfluidic device (two-well connects) were filled with 300 μLs of media and centrifuged at 40 r.c.f for 4 minutes to fill all the channels.
After 24 hours of culture, 50 μls of fresh media with different concentrations of staurosporine were added to different wells (see FIG. 11A). The device was placed on a compressed air system and the fluid was pumped via membrane flexion under a compressed air cycle of 1.5 psi (amplitude), sinusoidal wave pattern with a frequency of 0.2. The cells were imaged with live/dead staining after 24 hours to understand the diffusion characteristics of the drug and resulting cell death induced by staurosporine. […] Note that each image of the cells in a single well is divided into quadrants.

[2] = system: heart, liver and lung microfluidic modules; conditions: Skardal et al., Scientific Reports 7(1), 8837 (2017); cited from earlier work
[3] = system: HCT116 colorectal cancer cells; experiment: Hepatocyte-cancer cell crosstalk: prodrug added to hepatocyte well, cell death in connected HCT116 well (live/dead staining); type: cell-based; conditions: increasing concentrations of Tegafur (0, 100, 200, 300 and 400 uM) added to hepatocyte chamber; fluidic flow 72 hours
Experimental: 20,000 primary human hepatocytes (Lonza) (Hepatocyte plating medium for 4 hours, followed by hepatocyte maintenance medium with 0.3% (v/v) matrigel GFR for 20 hours) or HepG2 cells (to be transfected with CYP2A6 cDNA (as per vendor's recommendation)) were plated in one well of the two connected wells in their respective cell culture medium (catalog number 3386 for Transwell® plate). Prior to plating the primary human hepatocytes from Lonza, the Transwell® plate was coated with 0.1 mg/ml collagen (50 μls) ([…] Sigma-collagen I rat tail solution) (solubilized in 0.1% acetic acid in 1×PBS (v/v)) for 1 hour at 37° C. (cell culture incubator) and washed with 1×PBS. The primary human hepatocytes were sandwiched in the human hepatocyte maintenance medium with 0.3% matrigel GFR (v/v) for the next 20 hours. In the other connected well of each test unit, 20,000 HCT116 cells were plated directly on the Transwell® membrane in McCoy's 5A media. For HepG2 cells, the cells were transfected with CYP2A6 cDNA for 48 hours prior to any drug addition. On the day of drug addition, the HCT116 colorectal cancer cells were moved into hepatocyte media in order to prevent mixing of different mediums. The high-throughput microfluidic device illustrated in FIG. 5B was cleaned, assembled and sterilized via autoclaving for 60 minutes. […]

[4] = system: primary human hepatocytes; experiment: Hepatocyte-cancer cell crosstalk: viability of the hepatocytes after drug treatment; type: cell-based; conditions: Tegafur added to hepatocyte chamber; 72 hours
Experimental: 20,000 primary human hepatocytes (Lonza) (Hepatocyte plating medium for 4 hours, followed by hepatocyte maintenance medium with 0.3% (v/v) matrigel GFR for 20 hours) or HepG2 cells (to be transfected with CYP2A6 cDNA (as per vendor's recommendation)) were plated in one well of the two connected wells in their respective cell culture medium (catalog number 3386 for Transwell® plate). Prior to plating the primary human hepatocytes from Lonza, the Transwell® plate was coated with 0.1 mg/ml collagen (50 μls) (C3867 Sigma—collagen I rat tail solution) (solubilized in 0.1% acetic acid in 1×PBS (v/v)) for 1 hour at 37° C. (cell culture incubator) and washed with 1×PBS. The primary human hepatocytes were sandwiched in the human hepatocyte maintenance medium with 0.3% matrigel GFR (v/v) for the next 20 hours.
The high-throughput microfluidic device illustrated in FIG. 5B was cleaned, assembled and sterilized via autoclaving for 60 minutes. The wells of the autoclave-sterilized high-throughput microfluidic device (with two wells connected for each test unit) were filled with 300 μLs of media and centrifuged at 40 r.c.f for 4 minutes to fill all the flow channels. […] FIG. 12A depicts how the wells are filled, and FIG. 12B illustrates a test unit of the system. […]

Q: Which “cell death (live/dead staining)” value ([1]; test units with collagen gel plug as diffusion barrier, higher concentration of staurosporine) does the source give for CN[C@@H]1C[C@H]2O[C@@](C)([C@@H]1OC)n1c3ccccc3c3c4c(c5c6ccccc6n2c5c31)C(=O)NC4 [staurosporine] here?
A: Its value is “only a minor increase in cell death”.

Q: What about the “cell death in the HCT116 cells” value ([1]; test units without collagen gel, 0 μM, 25 μM and 50 μM staurosporine in connected well, 24 hours of operation) of the same compound?
A: The value was “dose-dependent cell death”.

Q: And the “cell death (live/dead staining)” value ([1]; without collagen gel, second image, 25 uM staurosporine)?
A: The value was “significant cell death”.

Q: What about the “cell death (live/dead staining)” value ([1]; without collagen gel, third image, 50 uM staurosporine) of the same compound?
A: The value was “much more cell death”.

Q: Which “toxicity in multi-organ system” value [2] does the source give for bleomycin here?
A: Its value is “induce lung inflammatory factor-driven cardiotoxicity”.

Q: For O=c1[nH]c(=O)n(C2CCCO2)cc1F (centres unmarked) [Tegafur], which “toxicity to HCT116 eGFP cells in the connected wells” value [3] is on record?
A: The value was “significant dose dependent toxicity”.

Q: What about the “propidium iodide stain in the hepatocytes” value [4] of the same compound?
A: The value was “slight dose dependent increase”.

Q: And the “viability of hepatocytes after drug treatment” value [4]?
A: Its value is “high viability”.

Source: patent US20210284944A1, “HIGH-THROUGHPUT MULTI-ORGAN PERFUSION MODELS” (Novartis AG, priority 2018, published 2021)
